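Tested at 5 concentrations; 48 h exposure; 96-well plates; endpoints linearly interpolated, else capped at highest concentration. GI50 marks 50% less growth. TGI: total growth inhibition.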
Legend:
Assay in all cases: DTP human tumour cell line panel, 48 h
[1] = system: CAKI-1 renal
[2] = system: SN12C renal
[3] = system: PC-3 prostate
[4] = system: MDA-MB-468 breast
[5] = system: SK-MEL-28 melanoma
[6] = system: T-47D breast
[7] = system: SR leukemia
[8] = system: HOP-92 NSCLC
[9] = system: NCI-H460 lung
[10] = system: SF-268 CNS
[11] = system: HL-60(TB) leukemia
[12] = system: K-562 leukemia
[13] = system: OVCAR-5 ovarian
[14] = system: COLO 205 colon
[15] = system: OVCAR-4 ovarian
[16] = system: SF-539 CNS
[17] = system: SK-MEL-2 melanoma
[18] = system: NCI-H23 lung
[19] = system: SK-OV-3 ovarian
[20] = system: BT-549 breast
[21] = system: TK-10 renal
[22] = system: ACHN renal
[23] = system: MOLT-4 leukemia
[24] = system: LOX IMVI melanoma
[25] = system: RXF 393 renal
[26] = system: HCC-2998 colon
[27] = system: 786-0 renal
[28] = system: MDA-MB-231 breast
[29] = system: MALME-3M melanoma
[30] = system: MCF7 breast
[31] = system: NCI-H226 lung
[32] = system: MDA-MB-435
[33] = system: UACC-257 melanoma
[34] = system: RPMI-8226 leukemia
[35] = system: EKVX NSCLC
[36] = system: A498 renal
[37] = system: HS 578T breast
[38] = system: KM12 colon
[39] = system: SNB-19 CNS
[40] = system: UACC-62 melanoma
[41] = system: HT29 colon
[42] = system: A549 NSCLC
[43] = system: HCT-15 colon
[44] = system: SW-620 colon
[45] = system: M14 melanoma
[46] = system: NCI-H522 lung
[47] = system: UO-31 renal
[48] = system: SF-295 CNS
[49] = system: HOP-62 NSCLC
[50] = system: OVCAR-3 ovarian
[51] = system: CCRF-CEM leukemia
[52] = system: HCT-116 colon
[53] = system: OVCAR-8 ovarian
[54] = system: SK-MEL-5 melanoma
[55] = system: U251 CNS
[56] = system: IGROV1 ovarian
[57] = system: DU-145 prostate

## CN(C)c1nc(NCCNS(=O)(=O)c2ccc(C(=O)/C=C/c3ccc(C(F)(F)F)cc3)cc2)nc(N2CCOCC2)n1
[1]
  GI50: 11.4 µM
  TGI: 24.3 µM
[2]
  GI50: 12.5 µM
  TGI: 25 µM
[3]
  GI50: 10.8 µM
  TGI: 25.4 µM
[4]
  GI50: 5.11 µM
  TGI: 18.4 µM
[5]
  GI50: 14.4 µM
  TGI: 27.5 µM
[6]
  GI50: 5.5 µM
  TGI: 27.2 µM
[7]
  GI50: 6.31 µM
  TGI: > 100 µM
[8]
  GI50: 15.2 µM
  TGI: 31.5 µM
[9]
  GI50: 16.1 µM
  TGI: 32.5 µM
[10]
  GI50: 16.3 µM
  TGI: 37.8 µM
[11]
  GI50: 5.12 µM
  TGI: 86.3 µM
[12]
  GI50: 3.21 µM
  TGI: > 100 µM
[13]
  GI50: 14.5 µM
  TGI: 27.7 µM
[14]
  GI50: 15 µM
  TGI: 32.4 µM
[15]
  GI50: 14.8 µM
  TGI: 28.9 µM
[16]
  GI50: 13 µM
  TGI: 25.7 µM
[17]
  GI50: 16.3 µM
  TGI: 30.4 µM
[18]
  GI50: 13 µM
  TGI: 26.2 µM
[19]
  GI50: 14.7 µM
  TGI: 29.5 µM
[20]
  GI50: 15.6 µM
  TGI: 29.3 µM
[21]
  GI50: 15.5 µM
  TGI: 29.5 µM
[22]
  GI50: 8.6 µM
  TGI: 20.7 µM
[23]
  GI50: 3.48 µM
  TGI: > 100 µM
[24]
  GI50: 1.68 µM
  TGI: 3.16 µM
[25]
  GI50: 11.5 µM
  TGI: 23.7 µM
[26]
  GI50: 12.9 µM
  TGI: 26 µM
[27]
  GI50: 14.5 µM
  TGI: 28.2 µM
[28]
  GI50: 11.7 µM
  TGI: 24.2 µM
[29]
  GI50: 14.4 µM
  TGI: 27.6 µM
[30]
  GI50: 1.68 µM
  TGI: 3.34 µM
[31]
  GI50: 16.1 µM
  TGI: 35.6 µM
[32]
  GI50: 10.3 µM
  TGI: 23 µM
[33]
  GI50: 15.3 µM
  TGI: 29.4 µM
[34]
  GI50: 1.77 µM
  TGI: 5.72 µM
[35]
  GI50: 14.3 µM
  TGI: 27.4 µM
[36]
  GI50: 13.3 µM
  TGI: 26.6 µM
[37]
  GI50: 17.8 µM
  TGI: 64.4 µM
[38]
  GI50: 8.95 µM
  TGI: 25.5 µM
[39]
  GI50: 13.5 µM
  TGI: 26.4 µM
[40]
  GI50: 11.2 µM
  TGI: 23.3 µM
[41]
  GI50: 2.06 µM
  TGI: 4.51 µM
[42]
  GI50: 13.8 µM
  TGI: 29.3 µM
[43]
  GI50: 1.86 µM
  TGI: 3.62 µM
[44]
  GI50: 3.3 µM
  TGI: 11.1 µM
[45]
  GI50: 9.83 µM
  TGI: 22.2 µM
[46]
  GI50: 15.2 µM
  TGI: 29.8 µM
[47]
  GI50: 11.9 µM
  TGI: 24.2 µM
[48]
  GI50: 8.11 µM
  TGI: 20.6 µM
[49]
  GI50: 17 µM
  TGI: 32.3 µM
[50]
  GI50: 16.4 µM
  TGI: 30.6 µM
[51]
  GI50: 3.2 µM
  TGI: > 100 µM
[52]
  GI50: 3.19 µM
  TGI: 10 µM
[53]
  GI50: 14.4 µM
  TGI: 28.1 µM
[54]
  GI50: 15.8 µM
  TGI: 29.5 µM
[55]
  GI50: 2.95 µM
  TGI: 11 µM
[56]
  GI50: 1.77 µM
  TGI: 3.51 µM
[57]
  GI50: 15.4 µM
  TGI: 28.9 µM

Source: PubChem BioAssay (NCI)
